Experimental data from PubChem BioAssay (NCI).
“And” between values parts separate entries of the source, which are not always exact repeats. Equal entries are not always repeated.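 Grown in 96-well plates, cells were treated for 48 hours with each compound at five concentrations. Insufficient inhibition: endpoint recorded as highest concentration tested. GI50: concentration for 50% inhibition of growth. TGI marks complete inhibition of growth.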

Key:
Experiment in all cases: DTP human tumour cell line panel, 48 h
COLO 205 colon = tested on: COLO 205 colon
SNB-75 CNS = tested on: SNB-75 CNS
UACC-62 melanoma = tested on: UACC-62 melanoma
NCI-H23 lung = tested on: NCI-H23 lung
MDA-MB-435 = tested on: MDA-MB-435
SF-539 CNS = tested on: SF-539 CNS
SW-620 colon = tested on: SW-620 colon
SF-295 CNS = tested on: SF-295 CNS
RPMI-8226 leukemia = tested on: RPMI-8226 leukemia
K-562 leukemia = tested on: K-562 leukemia

Row | SMILES | GI50 (COLO 205 colon) | TGI (COLO 205 colon) | GI50 (SNB-75 CNS) | TGI (SNB-75 CNS) | GI50 (UACC-62 melanoma) | TGI (UACC-62 melanoma) | GI50 (NCI-H23 lung) | TGI (NCI-H23 lung) | GI50 (MDA-MB-435) | TGI (MDA-MB-435) | GI50 (SF-539 CNS) | TGI (SF-539 CNS) | GI50 (SW-620 colon) | TGI (SW-620 colon) | GI50 (SF-295 CNS) | TGI (SF-295 CNS) | GI50 (RPMI-8226 leukemia) | TGI (RPMI-8226 leukemia) | GI50 (K-562 leukemia) | TGI (K-562 leukemia)
1 | CN[C@@H]1C[C@H]2O[C@@](C)([C@@H]1OC)n1c3ccccc3c3c4c(c5c6ccccc6n2c5c31)C(=O)N[C@H]4O | 0.0311 µM | 0.267 µM | 0.00564 µM | 0.0412 µM | 0.0134 µM | 0.231 µM | 0.0285 µM | 0.847 µM | 0.0613 µM | 2.56 µM | 0.0266 µM | 0.115 µM | 0.104 µM | > 5.91 µM | 0.0268 µM | 0.26 µM | 0.186 µM | 1.49 µM | 0.129 µM | > 6.56 µM
2 | O=C(O)c1ccc([S-])cc1.[Au+].c1ccc(CN2[CH-]N(Cc3ccccc3)C(c3ccccc3)=C2c2ccccc2)cc1 | 0.269 µM | 0.824 µM | 0.298 µM | 1.51 µM | 0.319 µM | 1.4 µM | 0.314 µM | 1.21 µM | 0.417 µM | 1.46 µM | 0.505 µM | 1.78 µM | 0.418 µM | 1.93 µM | 0.242 µM | 1.09 µM | 0.323 µM | 2 µM | 0.33 µM | 1.67 µM
3 | O=CC(Br)C(Br)c1ccccc1 (configuration not stated) | 2.17 µM | 4.55 µM | 7.69 µM | 20.9 µM | 1.79 µM | 3.74 µM | 3.85 µM | 24.8 µM | 1.74 µM | 3.63 µM | 1.87 µM | 4.36 µM | 0.776 µM | 2.33 µM | 12.8 µM | 27.7 µM | 2.14 µM | 5.39 µM | 0.963 µM | 6.84 µM
4 | N#C/C(=C\Nc1ccccn1)C(=O)c1ccco1 | – | > 100 µM | – | > 100 µM | – | > 100 µM | – | > 100 µM | – | > 100 µM | – | > 100 µM | – | > 100 µM | – | > 100 µM | – | > 100 µM | – | > 100 µM
5 | CN1CCC(C(=O)Nc2n[nH]c3nc(-c4ccc(O)cc4)c(Br)cc23)CC1 | 1 µM and 1.3 µM | 3.7 µM and 3.04 µM | 0.207 µM and 0.537 µM | 8.38 µM and 7.52 µM | 2.85 µM and 3.83 µM | 6.87 µM and 8.81 µM | 4.19 µM and 6.88 µM | 16.1 µM and > 25 µM | 1.57 µM and 1.45 µM | 5.58 µM and 5.61 µM | 0.647 µM and 0.946 µM | 3.23 µM and 8.15 µM | 0.975 µM and 0.254 µM | > 25 µM | 3.94 µM and 3.41 µM | 20.1 µM and 22.3 µM | 9.78 µM and 24.4 µM | > 25 µM | 1.04 µM and 0.404 µM | > 25 µM
6 | O=C(NCCCCCCNC(=O)n1cc(F)c(=O)[nH]c1=O)NCCCOCCOCCOCCOCCOCCOCCOCCOCCOCCOCCOCCOCCOCCOCCOCCOCCOCCOCCOCCOCCOCCCNC(=O)C(O)C(O)C(OC1OC(CO)C(O)C(O)C1O)C(O)CO (configuration not stated) | – | > 100 µM | – | > 43.7 µM | – | > 100 µM | – | > 100 µM | – | > 100 µM | – | 22.7 µM | – | > 100 µM | – | > 100 µM | – | > 100 µM | – | > 100 µM
7 | CC(=O)OC1CC[C@@]2(C)C(CC[C@]3(C)C2CC=C2[C@@H]4CC(C)(C)CCC4(C)CCC23C)[C@@]1(C)C(=O)O (some centres not stated) | – | 48.5 µM | – | 48.9 µM | – | 36.6 µM | – | 43.9 µM | – | 44.1 µM | – | 50.7 µM | – | 40.8 µM | – | 51.3 µM | – | 58.1 µM | – | 61.9 µM
8 | CC(=O)OCc1ccc(O)c(C=O)c1 | – | > 100 µM | – | > 100 µM | – | > 100 µM | – | > 100 µM | – | > 100 µM | – | > 100 µM | – | > 100 µM | – | > 100 µM | – | > 100 µM | – | > 100 µM
9 | Clc1cccc(N2CCN(CCN3CCc4c([nH]c5ccccc45)C3c3cccnc3)CC2)c1 (configuration not stated) | – | > 84 µM | – | > 76.4 µM | – | > 100 µM | – | > 100 µM | – | > 100 µM | – | 62.9 µM | – | > 100 µM | – | > 100 µM | – | > 84.1 µM | – | > 65.4 µM
10 | Fc1cccc(CSc2ncnc3c2ncn3C2CCCS2)c1 (configuration not stated) | – | 24.4 µM | – | 65.6 µM | – | 28.8 µM | – | 62.1 µM | – | 38.4 µM | – | 25.8 µM | – | > 100 µM | – | 41.1 µM | – | 52.1 µM | – | 84.2 µM
11 | CC1(C)N=C(N)N=C(N)N1c1ccc(CCc2ccc(Cl)cc2S(=O)(=O)F)c(Cl)c1 | 10.4 µM | 24 µM | 8.44 µM | 27.3 µM | 4.57 µM | 31.5 µM | 6.51 µM | > 100 µM | 4.27 µM | 25.4 µM | 5.54 µM | 26.1 µM | 2.66 µM | 17.7 µM | 4.82 µM | > 100 µM | 10.2 µM | 38.5 µM | 6.81 µM | > 100 µM
12 | CCOc1ccc2nc(-c3cccc(OCC(=O)NC(C)C)c3)nc(Nc3ccc(-c4cn[nH]c4)cc3)c2c1 | 0.686 µM | 5.4 µM | 1.16 µM | 2.48 µM | 1.21 µM | 4.16 µM | 1.29 µM | 10.2 µM | 0.485 µM | 3.81 µM | 1.25 µM | 2.67 µM | 1.35 µM | 5.99 µM | 0.711 µM | 3.01 µM | 0.232 µM | 4.9 µM | 0.454 µM | –
13 | CC1(C)CCC[C@]2(C)c3cc(O)ccc3CC[C@@H]12 | 20.4 µM | 46 µM | 12.4 µM | 27.5 µM | 13.1 µM | 25.8 µM | 17.3 µM | 34.3 µM | 6.65 µM | 21 µM | 18.3 µM | 33.1 µM | 13.8 µM | 29 µM | 20.6 µM | 44.6 µM | 12.3 µM | 30.4 µM | 10.9 µM | 29.5 µM
14 | CC(=O)C1COC(O)C1C (configuration not stated) | – | 34.5 µM | – | 70.4 µM | – | 27.2 µM | – | 31.7 µM | – | 30.2 µM | – | 45.4 µM | – | 44.2 µM | – | 71.9 µM | – | 60 µM | – | > 100 µM
15 | OC(C1CO1)C(O)C1CO1 (configuration not stated) | 124 µM | 127 µM and 285 µM | 32.2 µM | 116 µM and 166 µM | – | 72.1 µM and 130 µM | 36.4 µM | 90 µM and 369 µM | 46.1 µM | 150 µM and 246 µM | – | 106 µM and 128 µM | 52.4 µM and 93 µM | 150 µM and 458 µM | 11.9 µM and 1.59 µM | 123 µM and 126 µM | 84 µM | 150 µM and 861 µM | 62.5 µM | 150 µM
